Data as given in US11352352B2, “Aminopyrimidine compound, preparation method therefor and use thereof” (BEIJING ADAMADLE BIOTECHNOLOGY LIMITED LIABILITY COMPANY, priority 2017, dated 2022).

Tests used:
Experiment in all cases: Cell proliferation inhibition experiment, CellTiter-Glo (CTG) method
Type in all cases: cell-based
PC-9 = details: Homo sapiens, PC-9, 72 h, PC-9 cells, 3 days
Procedure: (§1) Cell Proliferation Inhibition Experiment
(§2) Compounds were tested in the selected cell lines, and solvent is set as control, nine concentrations were detected with three parallel wells for each concentration.
(§3) 2. Reagents and Materials • 1) fetal bovine serum FBS (GIBCO, Cat #10099-141) • 2) CellTiter-Glo® Luminescent Cell Viability Assay (Promega, Cat #G7572) • 3) 96-well plate with flat clear bottom, black wall plates (Corning®, Cat #3340)
(§4) The first day: Incubation and plant of cells • 1) Cells in logarithmic growth phase were harvested and counted by cell counter. Cell viability was detected by trypan blue exclusion assay to ensure that the viability of each cell line was above 90%. • 2) Cell concentration was adjusted by diluting complete culture medium, and 90 μL cell suspension was added to a 96-well plate (T0 plate and drug plate to be tested) to make the cell density reach the specified concentration. • 3) Cells in 96-well plate were incubated overnight at condition of 37° C., 5% CO2 and 95% humidity.
(§5) The second day: Reading T0 plate • 1) 10 μL culture medium was added to T0 plate. • 2) CTG reagent was melt, while the cell plate was balanced to room temperature for 30 minutes. • 3) The same volume of CTG solution was added to each well. • 4) The cell plate was vibrated for 2 minutes on an orbital shaker to lyze the cells. • 5) The cell plate was placed at room temperature for 10 minutes to stabilize the cold light signal. • 6) The cold light value was read with EnVision.
(§6) Drug Addition • 1) Drug dilution. The compounds to be tested were dissolved and packaged, then a gradient elution was performed to obtain a solution diluted 10 times. • 2) Drug addition. […] drug solution was added into each well of the 96-well plate, which was inoculated cells, three parallel wells were set for each cell concentration.
(§7) The third day: reading plate at the terminal • 1) CTG reagent was melt, while the cell plate was balanced to room temperature for 30 minutes. • 2) The same volume of CTG solution was added to each well. • 3) The cell plate was vibrated for 2 minutes on an orbital shaker to lyze the cells. • 4) The cell plate was placed at room temperature for 10 minutes to stabilize the cold light signal. • 5) The cold light value was read with EnVision
(§8) Data were analyzed using GraphPad Prism 5.0 software, and non-linear S curve regression was used for fitting the data to give a dose-effect curve, IC50 value was calculated accordingly. Cell Survival Rate (%)=(Lumdrugs−Lumcontrol)/(Lumcell−Lumcontrol)×100%.

NCI-H1975 = details: for IC50: Homo sapiens, NCI-H1975, 72 h, NCI-H1975 cells, CTG, 3 days; for A-431/NCI-H1975 Selectivity: ratio of A-431 IC50 to NCI-H1975 IC50
Procedure: as §1, §2, §3, §4, §5, §6, §7, §8

A-431 = details: Homo sapiens, A-431, 72 h, A-431 cells, 3 days
Procedure: as §1, §2, §3, §4, §5
Drug Addition • 1) Drug dilution. The compounds to be tested were dissolved and packaged, then a gradient elution was performed to obtain a solution diluted 10 times. • 2) Drug addition. […] drug solution was added into each well of the 96-well plate, which was inoculated cells, three parallel wells were set for each cell concentration. The highest concentration of the compounds to be tested on A-431 was 30 μM, nine concentrations was set with 3 times dilution; while the highest concentration on NCI-H1975 and PC-9 was 1.111 μM, 9 concentrations was set with 3 times dilution. • 3) Culture. Cells in 96-well plates in which drugs have been added were cultured at condition of 37° C., 5% CO2 and 95% humidity for 3 days, and then CTG assay was performed respectively.
as §7, §8

Row | SMILES | IC50 (PC-9) | IC50 (NCI-H1975) | IC50 (A-431) | A-431/NCI-H1975 Selectivity (NCI-H1975)
1 | C=CC(=O)Nc1cc(Nc2cc(-c3ccc4cnn(C)c4c3)ncn2)c(OC)cc1N1CC(C)N(C)C(C)C1 (stereo not drawn) [compound 42] | 34.6 nM | 25.8 nM | 686 nM | 
2 | C=CC(=O)Nc1cc(Nc2cc(-c3ccc4cnn(C)c4c3)ncn2)c(OC)cc1N1CCN(C)C[C@H]1C [compound 44] | 32.8 nM | 102 nM | 1600 nM | 15.7
3 | C=CC(=O)Nc1cc(Nc2cc(-c3ccc4cnn(C)c4c3)ncn2)c(OC)cc1N1CCCN(C)CC1 [compound 47] | 34 nM | 49 nM | 671 nM | 13.7
4 | C=CC(=O)Nc1cc(Nc2cc(-c3ccc4cnn(C)c4c3)ncn2)c(OC)cc1N1CCN(CC)[C@@H](C)C1 [compound 48] | 49.7 nM | 67.2 nM | 1390 nM | 20.7
5 | C=CC(=O)Nc1cc(Nc2cc(-c3ccc4cnn(C)c4c3)ncn2)c(OC)cc1N1CCN(CC)[C@H](C)C1 [compound 49] | 88 nM | 85.6 nM | 1470 nM | 17.2
6 | C=CC(=O)Nc1cc(Nc2cc(-c3ccc4cnn(C)c4c3)ncn2)c(OC)cc1N1CCN(C)[C@@H](C)C1 [compound 50] | 47.5 nM | 59.2 nM | 1080 nM | 18.2
7 | C=CC(=O)Nc1cc(Nc2cc(-c3ccc4cnn(C)c4c3)ncn2)c(OC)cc1N1CCN(C)[C@H](C)C1 [compound 51] | 59.8 nM | 69.4 nM | 1450 nM | 20.8
8 | C=CC(=O)Nc1cc(Nc2cc(-c3ccc4cnn(C)c4c3)ncn2)c(OC)cc1N1CCC(N2CCN(C)CC2)CC1 [compound 52] | 39 nM | 41.7 nM | 615 nM | 14.7
9 | C=CC(=O)Nc1cc(Nc2cc(-c3ccc4cnn(C)c4c3)ncn2)c(OC)cc1N1CCC(C2CCN(C)CC2)CC1 [compound 53] | 67.9 nM | 151 nM | 1250 nM | 8.3
10 | C=CC(=O)Nc1cc(Nc2cc(-c3ccc4cnn(C)c4c3)ncn2)c(OC)cc1N(C)C1CCN(C)CC1 [compound 54] | 88.2 nM | 111 nM | 1310 nM | 11.8
11 | C=CC(=O)Nc1cc(Nc2cc(-c3ccc4c(C)nn(C)c4c3)ncn2)c(OC)cc1N1CC(C)N(C)C(C)C1 (stereo not drawn) [compound 56] | 56.7 nM | 113 nM | 1230 nM | 10.9
12 | C=CC(=O)Nc1cc(Nc2cc(-c3ccc4cnn(C)c4c3)ncn2)c(OC)cc1N(C)C1CCCN(C)C1 (stereo not drawn) [compound 73] | 50.4 nM | 65.3 nM | 1030 nM | 15.7
13 | C=CC(=O)Nc1cc(Nc2cc(-c3ccc4c(cnn4C)c3)ncn2)c(OC)cc1N(C)CCN(C)C(C)=O [compound 76] | 57.9 nM | 87.3 nM | 9450 nM | 108.3
14 | C=CC(=O)Nc1cc(Nc2cc(-c3ccc4cnn(C)c4c3)ncn2)c(OC)cc1N(C)CCN1CCN(C)CC1 [compound 78] | 47.8 nM | 61.8 nM | 1030 nM | 16.7

More lines, in order of falling IC50 (PC-9), values ahead:

Row | IC50 (PC-9) | IC50 (NCI-H1975) | IC50 (A-431) | SMILES | A-431/NCI-H1975 Selectivity (NCI-H1975)
15 | 32.7 nM | 82.8 nM | 1250 nM | C=CC(=O)Nc1cc(Nc2cc(-c3ccc4cnn(C)c4c3)ncn2)c(OC)cc1N1CCN(C2CCOCC2)CC1 [compound 46] | 15.1
16 | 29.7 nM | 45.2 nM | 1900 nM | C=CC(=O)Nc1cc(Nc2cc(-c3ccc4c(cnn4C)c3)ncn2)c(OC)cc1N(C)C1CCC(N2CCN(C)CC2)CC1 (stereo not drawn) [compound 72] | 42.1
17 | 27.8 nM | 33.1 nM | 2560 nM | C=CC(=O)Nc1cc(Nc2cc(-c3ccc4c(cnn4C)c3)ncn2)c(OC)cc1N(C)C1CCC(N(C)C)CC1 (stereo not drawn) [compound 71] | 77.3
18 | 23.6 nM | 137 nM | 2610 nM | C=CC(=O)Nc1cc(Nc2cc(-c3ccc4cnn(C)c4c3)ncn2)c(OC)cc1N1CCC(OC)CC1 [compound 45] | 19.0
19 | 16.7 nM | 29.8 nM | 1140 nM | C=CC(=O)Nc1cc(Nc2cc(-c3ccc4cnn(C)c4c3)ncn2)c(OC)cc1N1CCN(C)CC1 [compound 43] | 38.3
20 | 16.4 nM | 34.5 nM | 1150 nM | C=CC(=O)Nc1cc(Nc2cc(-c3ccc4cnn(C)c4c3)ncn2)c(OC)cc1N1CCN(CCN(C)C)CC1 [compound 77] | 33.5
21 | 15 nM | 14.6 nM | 891 nM | C=CC(=O)Nc1cc(Nc2cc(-c3ccc4c(cnn4C)c3)ncn2)c(OC(F)F)cc1N(C)CCN1CCN(C)CC1 [compound 67] | 61.0
22 | 13.6 nM | 24.3 nM | 1500 nM | C=CC(=O)Nc1cc(Nc2cc(-c3ccc4c(cnn4C)c3)ncn2)c(OC(C)C)cc1N(C)CCN(C)C [compound 75] | 61.7
23 | 12 nM | 10.9 nM | 765 nM | C=CC(=O)Nc1cc(Nc2cc(-c3ccc4nc(C)sc4c3)ncn2)c(OC)cc1N(C)CCN(C)C [compound 65] | 70.2
24 | 10.6 nM | 31.9 nM | 1150 nM | C=CC(=O)Nc1cc(Nc2cc(-c3ccc4cnn(C)c4c3)ncn2)c(OC)cc1N(C)C1CCN(C)C1 (stereo not drawn) [compound 74] | 36.0
25 | 10.4 nM | 13.4 nM | 1830 nM | C=CC(=O)Nc1cc(Nc2cc(-c3ccc4c(cnn4C)c3)ncn2)c(OC)cc1N(C)C1CCCN(C)C1 (stereo not drawn) [compound 69] | 136.8
26 | 9.4 nM | 17.8 nM | 1620 nM | C=CC(=O)Nc1cc(Nc2cc(-c3ccc4c(cnn4C)c3)ncn2)c(OC)cc1N(C)CCNC(C)(C)C [compound 61] | 
27 | 8.9 nM | 10 nM | 1270 nM | C=CC(=O)Nc1cc(Nc2cc(-c3ccc4c(cnn4C)c3)ncn2)c(OC)cc1N1CCN(CCN(C)C)CC1 [compound 59] | 
28 | 8.5 nM | 8.1 nM | 779 nM | C=CC(=O)Nc1cc(Nc2cc(-c3ccc4c(cnn4C)c3)ncn2)c(OCC)cc1N(C)C1CCN(C)C1 (stereo not drawn) [compound 66] | 96.2
29 | 6.9 nM | 8.8 nM | 1130 nM | C=CC(=O)Nc1cc(Nc2cc(-c3ccc4c(cnn4C)c3)ncn2)c(OC)cc1NCCN(C)C [compound 58] | 
30 | 6.5 nM | 4.1 nM | 540 nM | C=CC(=O)Nc1cc(Nc2cc(-c3ccc4ncsc4c3)ncn2)c(OC)cc1N(C)CCN(C)C [compound 63] | 130.7
31 | 5.4 nM | 13.1 nM | 690 nM | C=CC(=O)Nc1cc(Nc2cc(-c3ccc4ncsc4c3)ncn2)c(OC)cc1N1CCC(N2CCN(C)CC2)CC1 [compound 64] | 52.6
32 | 3.6 nM | 32.2 nM | 586 nM | C=CC(=O)Nc1cc(Nc2cc(-c3ccc4cnn(C)c4c3)ncn2)c(OC)cc1N1CCC(N2CCOCC2)CC1 [compound 55] | 
